Assay results reported in patent US11129825B2, “Polysubunit opioid prodrugs resistant to overdose and abuse” (Elysium Therapeutics, Inc., priority 2015, dated 2021).

Legend:
[1] = Pharmacokinetics of delivered hydrocodone after increasing oral doses in dogs; assay type: in vivo
Description: The effect of increasing oral doses of compounds 2 and 3 on the pharmacokinetics of delivered hydrocodone (i.e. measured plasma hydrocodone concentrations vs. time) was evaluated in dogs. Specific pharmacokinetics parameters of the delivered opioid were calculated (e.g. Cmax, Tmax, AUC) and are presented below in the Table below.

trypsin = assay: Inhibition of trypsin-catalyzed hydrolysis of Nα-Benzoyl-L-arginine 4-nitroanilide hydrochloride in vitro; assay type: biochemical; conditions: pH 7.4, 37° C.; for Percent Nα-Benzoyl-L-arginine 4-nitroanilide hydrochloride remaining: trypsin 2,000 BAEE
Description: This example describes in vitro experiments with a compound of the disclosure to provide a mechanism of overdose protection.
The effect of increasing concentrations of compounds 2 and 3 on the rate and extent of the trypsin-catalyzed hydrolysis of a commercially available trypsin substrate Nα-Benzoyl-L-arginine 4-nitroanilide hydrochloride was evaluated in the presence of trypsin (2,000 BAEE activity) in a pH 7.4 phosphate buffer at 37° C. in vitro. Both buffer alone (i.e. no trypsin) and trypsin (i.e. no compound 2 or 3) controls were run contemporaneously.

opioid receptors = conditions: after oral doses; cited from earlier work
[2] = hydrochloride salt; cited from earlier work
[3] = oral administration; cited from earlier work

COc1ccc2c3c1O[C@H]1C(OC(=O)N4CCC(C(=O)NCCCC[C@H](NC(=O)OCc5ccccc5)C(=O)NCCOc5ccc(C(=O)Oc6ccc7cc(C(=N)N)ccc7c6)cc5)CC4CNC(=O)[C@@H](CCCNC(=N)N)NC(=O)CNC(C)=O)=CC[C@H]4[C@@H](C2)N(C)CC[C@]314 (stereo partly shown) [Compound 2]
Release of hydrocodone in vivo with increasing oral doses ([1]; increasing oral doses, dogs, result in words): progressively attenuate the release of hydrocodone in vivo | AUC0-8 h of hydrocodone in dog plasma ([1]; oral dose 1.66 umol/kg): 7.79 ng·h/mL | Maximum concentration (Cmax) of hydrocodone in dog plasma ([1]; oral dose 1.66 umol/kg): 2.87 ng/mL HC | Time of maximum concentration (Tmax) of hydrocodone in dog plasma ([1]; oral dose 1.66 umol/kg): 0.96 h | AUC0-8 h of hydrocodone in dog plasma ([1]; oral dose 5 umol/kg): 27 ng·h/mL | Maximum concentration (Cmax) of hydrocodone in dog plasma ([1]; oral dose 5 umol/kg): 6.49 ng/mL HC | Time of maximum concentration (Tmax) of hydrocodone in dog plasma ([1]; oral dose 5 umol/kg): 1.38 h | AUC0-8 h of hydrocodone in dog plasma ([1]; oral dose 10 umol/kg): 37.68 ng·h/mL | Maximum concentration (Cmax) of hydrocodone in dog plasma ([1]; oral dose 10 umol/kg): 8.37 ng/mL HC | Time of maximum concentration (Tmax) of hydrocodone in dog plasma ([1]; oral dose 10 umol/kg): 2.08 h | AUC0-8 h of hydrocodone in dog plasma ([1]; oral dose 35 umol/kg): 64.38 ng·h/mL | Maximum concentration (Cmax) of hydrocodone in dog plasma ([1]; oral dose 35 umol/kg): 11.87 ng/mL HC | Time of maximum concentration (Tmax) of hydrocodone in dog plasma ([1]; oral dose 35 umol/kg): 2.13 h | Trypsin inhibition with increasing compound concentration (trypsin; 1 uM to 1 mM, result in words): progressively inhibit trypsin in a concentration dependent manner | Percent Nα-Benzoyl-L-arginine 4-nitroanilide hydrochloride remaining (trypsin; compound 1 uM, 2 min): 100% | Percent Nα-Benzoyl-L-arginine 4-nitroanilide hydrochloride remaining (trypsin; compound 1 uM, 13 min): 39% | Percent Nα-Benzoyl-L-arginine 4-nitroanilide hydrochloride remaining (trypsin; compound 1 uM, 24 min): 0% | Percent Nα-Benzoyl-L-arginine 4-nitroanilide hydrochloride remaining (trypsin; compound 1 uM, 80 min): 0% | Percent Nα-Benzoyl-L-arginine 4-nitroanilide hydrochloride remaining (trypsin; compound 1 uM, 102 min): 0% | Percent Nα-Benzoyl-L-arginine 4-nitroanilide hydrochloride remaining (trypsin; compound 1 uM, 119 min): 0% | Percent Nα-Benzoyl-L-arginine 4-nitroanilide hydrochloride remaining (trypsin; compound 1 uM, 234 min): 0% | Percent Nα-Benzoyl-L-arginine 4-nitroanilide hydrochloride remaining (trypsin; compound 10 uM, 2 min): 100% | Percent Nα-Benzoyl-L-arginine 4-nitroanilide hydrochloride remaining (trypsin; compound 10 uM, 13 min): 98% | Percent Nα-Benzoyl-L-arginine 4-nitroanilide hydrochloride remaining (trypsin; compound 10 uM, 24 min): 96% | Percent Nα-Benzoyl-L-arginine 4-nitroanilide hydrochloride remaining (trypsin; compound 10 uM, 80 min): 94% | Percent Nα-Benzoyl-L-arginine 4-nitroanilide hydrochloride remaining (trypsin; compound 10 uM, 102 min): 93% | Percent Nα-Benzoyl-L-arginine 4-nitroanilide hydrochloride remaining (trypsin; compound 10 uM, 119 min): 94% | Percent Nα-Benzoyl-L-arginine 4-nitroanilide hydrochloride remaining (trypsin; compound 10 uM, 234 min): 87% | Percent Nα-Benzoyl-L-arginine 4-nitroanilide hydrochloride remaining (trypsin; compound 100 uM, 2 min): 100% | Percent Nα-Benzoyl-L-arginine 4-nitroanilide hydrochloride remaining (trypsin; compound 100 uM, 13 min): 98% | Percent Nα-Benzoyl-L-arginine 4-nitroanilide hydrochloride remaining (trypsin; compound 100 uM, 24 min): 100% | Percent Nα-Benzoyl-L-arginine 4-nitroanilide hydrochloride remaining (trypsin; compound 100 uM, 80 min): 99% | Percent Nα-Benzoyl-L-arginine 4-nitroanilide hydrochloride remaining (trypsin; compound 100 uM, 102 min): 99% | Percent Nα-Benzoyl-L-arginine 4-nitroanilide hydrochloride remaining (trypsin; compound 100 uM, 119 min): 99% | Percent Nα-Benzoyl-L-arginine 4-nitroanilide hydrochloride remaining (trypsin; compound 100 uM, 234 min): 99% | Percent Nα-Benzoyl-L-arginine 4-nitroanilide hydrochloride remaining (trypsin; compound 1 mM, 2 min): 100% | Percent Nα-Benzoyl-L-arginine 4-nitroanilide hydrochloride remaining (trypsin; compound 1 mM, 13 min): 100% | Percent Nα-Benzoyl-L-arginine 4-nitroanilide hydrochloride remaining (trypsin; compound 1 mM, 24 min): 99% | Percent Nα-Benzoyl-L-arginine 4-nitroanilide hydrochloride remaining (trypsin; compound 1 mM, 80 min): 100% | Percent Nα-Benzoyl-L-arginine 4-nitroanilide hydrochloride remaining (trypsin; compound 1 mM, 102 min): 100% | Percent Nα-Benzoyl-L-arginine 4-nitroanilide hydrochloride remaining (trypsin; compound 1 mM, 119 min): 100% | Percent Nα-Benzoyl-L-arginine 4-nitroanilide hydrochloride remaining (trypsin; compound 1 mM, 234 min): 100%

C[C@H]1[C@H]2Cc3ccc(O)cc3[C@]1(C)CCN2CC1CC1 [cyclazocine]
Duration of action (opioid receptors): ~24 h

O=C1CC[C@@]2(O)[C@H]3Cc4ccc(O)c5c4[C@@]2(CCN3CC2CC2)[C@H]1O5 [naltrexone]
Solubility in water [2]: about 100 mg/mL | Oral bioavailability [3]: 5-40% | Duration of action (opioid receptors): ~24 h
